{"source": "paper PMC7615053", "about": "(Nature methods, 2023)", "key": {"GRABNE1m [1]": {"system": "GRABNE1m", "experiment": "Confocal imaging of GRABNE1m in HEK293T cells", "assay_type": "cell-based"}, "[2]": {"system": "tail-lift-induced NE release", "experiment": "Fiber photometry in lateral hypothalamus during tail-lifting", "assay_type": "in vivo, mouse", "details": "trazodone 1 mg/kg or yohimbine 4 mg/kg, i.p., mice"}, "[3]": {"system": "optogenetically-evoked NE signals", "assay_type": "in vivo, mouse", "details": "yohimbine 4 mg/kg i.p., vHPC, isoflurane anesthesia, 5 Hz LC stimulation"}, "nLightG [4]": {"target": "T1, nLightG (Physeter macrocephalus, UniProt A0A2Y9EW94)", "T1 sequence (A0A2Y9EW94 with tags, fused parts or gaps)": "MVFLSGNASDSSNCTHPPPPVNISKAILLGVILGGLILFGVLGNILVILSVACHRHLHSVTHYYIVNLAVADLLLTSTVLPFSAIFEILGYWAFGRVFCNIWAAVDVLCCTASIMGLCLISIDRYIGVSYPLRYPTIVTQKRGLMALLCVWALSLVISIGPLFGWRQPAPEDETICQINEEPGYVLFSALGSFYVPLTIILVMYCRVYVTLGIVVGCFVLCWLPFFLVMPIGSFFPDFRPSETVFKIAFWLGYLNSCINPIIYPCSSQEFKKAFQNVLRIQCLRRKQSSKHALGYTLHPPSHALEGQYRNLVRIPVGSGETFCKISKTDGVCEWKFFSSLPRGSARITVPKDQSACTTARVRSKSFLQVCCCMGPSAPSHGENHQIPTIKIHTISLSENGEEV", "experiment": "Confocal imaging of nLightG in HEK293T cells", "assay_type": "cell-based, sperm whale", "details": "for fluorescence response of nLightG to neurotransmitter: 10 μM, HEK293T cells"}, "nLightR [5]": {"target": "T2, nLightR (Physeter macrocephalus, UniProt A0A2Y9EW94)", "T2 sequence (A0A2Y9EW94 with tags, fused parts or gaps)": "T1 sequence (A0A2Y9EW94 with tags, fused parts or gaps)", "experiment": "Confocal imaging of nLightR in HEK293T cells", "assay_type": "cell-based, sperm whale", "details": "for fluorescence response of nLightR to neurotransmitter: 10 μM, HEK293T cells"}, "nLightG [6]": {"target": "T1, nLightG", "experiment": "Ligand perfusion on acute brain slices", "design": "species or system sperm whale"}, "nLightR [7]": {"target": "T2, nLightR", "experiment": "Ligand perfusion on acute brain slices", "design": "species or system sperm whale"}, "GRABNE1m [8]": {"system": "GRABNE1m"}, "[9]": {"target": "T3, sperm whale-based indicator (Alpha-1 AR, red prototype) (Physeter macrocephalus, UniProt A0A2Y9EW94)", "T3 sequence (A0A2Y9EW94 with tags, fused parts or gaps)": "T1 sequence (A0A2Y9EW94 with tags, fused parts or gaps)", "experiment": "Dose-response of the sperm whale-based red indicator prototype in HEK293T cells", "assay_type": "cell-based"}, "[10]": {"system": "green fluorescent NE indicator prototype (sperm whale Alpha-1 AR)", "experiment": "Fluorescence response of the green NE indicator prototype", "assay_type": "cell-based", "details": "green prototype with fluorescent protein module from dLight1.3b"}, "swAlpha-1 AR [11]": {"system": "swAlpha-1 AR", "assay_type": "cell-based, sperm whale", "details": "NE 10 μM, wild-type swAlpha-1 AR, HEK293T"}, "nLightG [12]": {"target": "T1, nLightG", "experiment": "Intracellular calcium signaling", "assay_type": "cell-based, sperm whale", "details": "NE 10 μM, HEK293T"}, "nLightR [13]": {"target": "T2, nLightR", "experiment": "Intracellular calcium signaling", "assay_type": "cell-based, sperm whale", "details": "NE 10 μM, HEK293T"}, "swAlpha-1 AR [14]": {"system": "swAlpha-1 AR", "experiment": "NanoBiT complementation assay in HEK293T cells", "assay_type": "cell-based, sperm whale", "details": "NE 10 μM"}, "nLightG [15]": {"target": "T1, nLightG", "experiment": "NanoBiT complementation assay in HEK293T cells", "assay_type": "cell-based, sperm whale", "details": "NE 10 μM"}, "nLightR [16]": {"target": "T2, nLightR", "experiment": "NanoBiT complementation assay in HEK293T cells", "assay_type": "cell-based, sperm whale", "details": "NE 10 μM"}, "nLightG [17]": {"target": "T1, nLightG", "experiment": "Plate reader dose-response of nLightG in HEK293T cells", "assay_type": "cell-based, sperm whale"}, "nLightR [18]": {"target": "T2, nLightR", "experiment": "Plate reader dose-response of nLightR in HEK293T cells", "assay_type": "cell-based, sperm whale"}, "GRABNE1m [19]": {"system": "GRABNE1m", "details": "HEK293T cells"}, "human DRD1": {"system": "human DRD1", "details": "DA 10 μM, DRD1 (positive control)"}, "[20]": {"system": "optogenetically-evoked NE release", "experiment": "Dual-site fiber photometry in LC and dHPC during optogenetic LC stimulation", "assay_type": "in vivo, mouse", "details": "desipramine 10 μg/g i.p., awake mice"}, "[21]": {"details": "after NE 10 μM, Trz 10 μM, HEK293T cells and neurons"}, "[22]": {"details": "trazodone 10 μM after NE 50 μM, brain slices"}}, "note": "pEC50: −log10 of the molar value. Read-outs that look alike come from different tables or passages of the source."}
{"smiles": "COC(=O)[C@@H]1[C@H]2C[C@H]3c4[nH]c5ccccc5c4CCN3C[C@@H]2CC[C@@H]1O", "note": "[yohimbine]", "values": [{"measurement": "effect of antagonist on NE-induced activation of GRABNE1m", "setting": "GRABNE1m [1]", "value": "fully inactivated"}, {"measurement": "effect on tail-lift-induced GRABNE1m signals", "setting": "[2]", "value": "strongly attenuated"}, {"measurement": "effect on tail-lift-induced response of nLightG", "setting": "[2]", "value": "increased"}, {"measurement": "effect on tail-lift-induced response of nLightR", "setting": "[2]", "value": "increased"}, {"measurement": "effect on optogenetically-evoked NE signals monitored via GRABNE1m", "setting": "[3]", "value": "significantly attenuated"}, {"measurement": "effect on optogenetically-evoked NE signals reported by nLightG", "setting": "[3]", "value": "did not have a significant effect"}]}
{"smiles": "O=c1n(CCCN2CCN(c3cccc(Cl)c3)CC2)nc2ccccn12", "note": "[trazodone]", "values": [{"measurement": "effect of antagonist on NE-induced activation of nLightG", "setting": "nLightG [4]; [21]", "value": "fully reversed"}, {"measurement": "effect of antagonist on NE-induced activation of nLightR", "setting": "nLightR [5]; [21]", "value": "fully reversed"}, {"measurement": "effect of antagonist on NE-induced activation of GRABNE1m", "setting": "GRABNE1m [1]; after NE 10 μM, Trz 100 nM, Yoh 100 nM, HEK293T", "value": "not affected"}, {"measurement": "effect on NE-induced response", "setting": "nLightG [6]; [22]", "value": "largely reversed"}, {"measurement": "effect on NE-induced response", "setting": "nLightR [7]; [22]", "value": "largely reversed"}, {"measurement": "effect on tail-lift-induced GRABNE1m signals", "setting": "[2]", "value": "no effect"}, {"measurement": "effect on tail-lift-induced response of nLightG", "setting": "[2]", "value": "significantly reduced"}, {"measurement": "effect on tail-lift-induced response of nLightR", "setting": "[2]", "value": "significantly reduced"}, {"measurement": "effect on NE-induced response", "setting": "GRABNE1m [8]; [22]", "value": "no significant effect"}]}
{"smiles": "CNC[C@H](O)c1ccc(O)c(O)c1", "note": "[epinephrine]", "values": [{"measurement": "fluorescence response of nLightG to neurotransmitter", "setting": "nLightG [4]", "value": "significant fluorescence response"}, {"measurement": "fluorescence response of nLightR to neurotransmitter", "setting": "nLightR [5]", "value": "significant fluorescence response"}]}
{"smiles": "NC[C@H](O)c1ccc(O)c(O)c1", "note": "[NE, norepinephrine]", "values": [{"measurement": "pEC50", "setting": "[9]", "value": 6.24}, {"measurement": "ΔF/F0 response", "setting": "[10]", "value": "approximately 1000%"}, {"measurement": "fluorescence response of nLightG to neurotransmitter", "setting": "nLightG [4]", "value": "significant fluorescence response"}, {"measurement": "fluorescence response of nLightR to neurotransmitter", "setting": "nLightR [5]", "value": "significant fluorescence response"}, {"measurement": "intracellular Ca2+ concentration", "setting": "swAlpha-1 AR [11]", "value": "significant increase"}, {"measurement": "intracellular Ca2+ concentration", "setting": "nLightG [12]", "value": "did not induce a significant increase"}, {"measurement": "intracellular Ca2+ concentration", "setting": "nLightR [13]", "value": "did not induce a significant increase"}, {"measurement": "coupling to mini-Gi", "setting": "swAlpha-1 AR [14]", "value": "no significant coupling"}, {"measurement": "coupling to mini-Gq and mini-Gs", "setting": "swAlpha-1 AR [14]", "value": "significant coupling"}, {"measurement": "coupling to mini-Gq, mini-Gs or mini-Gi", "setting": "nLightG [15]", "value": "did not lead to a significant coupling"}, {"measurement": "recruitment of β-arrestin-2", "setting": "nLightG [15]", "value": "no recruitment"}, {"measurement": "coupling to mini-Gq, mini-Gs or mini-Gi", "setting": "nLightR [16]", "value": "did not lead to a significant coupling"}, {"measurement": "recruitment of β-arrestin-2", "setting": "nLightR [16]", "value": "no recruitment"}]}
{"smiles": "NCCc1ccc(O)c(O)c1", "note": "[DA, dopamine]", "values": [{"measurement": "pEC50", "setting": "[9]", "value": 4.67}, {"measurement": "fluorescence response of nLightG to neurotransmitter", "setting": "nLightG [4]", "value": "significant fluorescence response"}, {"measurement": "fluorescence response of nLightR to neurotransmitter", "setting": "nLightR [5]", "value": "significant fluorescence response"}, {"measurement": "agonist character at nLightG", "setting": "nLightG [17]", "value": "partial agonist"}, {"measurement": "EC50 of DA relative to that of NE", "setting": "nLightG [17]; nLightG", "value": "approximately 30 fold"}, {"measurement": "agonist character at nLightR", "setting": "nLightR [18]", "value": "partial agonist"}, {"measurement": "EC50 of DA relative to that of NE", "setting": "nLightR [18]; nLightR", "value": "approximately 30 fold"}, {"measurement": "response to DA relative to response to identical concentration of NE", "setting": "nLightG [6]; 50 μM, mouse LH brain slices", "value": "about 12%"}, {"measurement": "response to DA relative to response to identical concentration of NE", "setting": "nLightR [7]; 50 μM, mouse LH brain slices", "value": "~3", "unit": "%"}, {"measurement": "EC50 for DA relative to that for NE", "setting": "GRABNE1m [19]", "value": 8, "unit": "fold"}, {"measurement": "maximal response to DA as fraction of the response to NE", "setting": "GRABNE1m [19]", "value": 35, "unit": "%"}, {"measurement": "recruitment of β-arrestin-2", "setting": "human DRD1", "value": "significant recruitment"}, {"measurement": "response to DA relative to response to NE", "setting": "GRABNE1m [8]; 50 μM, mouse LH brain slices", "value": "about 19%"}]}
{"smiles": "CNCCCN1c2ccccc2CCc2ccccc21", "note": "[desipramine]", "values": [{"measurement": "effect on magnitude and decay kinetics of the nLightG response in LC", "setting": "[20]", "value": "significant increase"}]}
